Values quoted from earlier work, collected in patent US20180271820A1, “METHODS OF TREATING HEART FAILURE” (priority 2015, published 2018).
Where a name gives a salt, the structure may show the parent alone.

Tests used:
HFPEF patients = conditions: RELAX trial; cited from earlier work
[1] = test system: patients with preserved EF; conditions: GISSI-HF, rosuvastatin or placebo; cited from earlier work
patients = conditions: 120 mg, 240 mg, daily, BID, and TID; cited from earlier work
[2] = cited from earlier work
Ehrlich ascites tumor = conditions: mice; cited from earlier work
[3] = test system: patients with symptomatic heart failure and a preserved ejection fraction; conditions: 3,445 patients, TOPCAT trial; cited from earlier work

CCCc1nn(C)c2c(=O)[nH]c(-c3cc(S(=O)(=O)N4CCN(C)CC4)ccc3OCC)nc12 [sildenafil]
primary outcome of functional capacity (HFPEF patients): did not impact

CC(C)c1nc(N(C)S(C)(=O)=O)nc(-c2ccc(F)cc2)c1/C=C/[C@@H](O)C[C@@H](O)CC(=O)O [rosuvastatin]
benefit in subgroup of patients with preserved EF [1]: no benefit

COC(=O)/C=C/C(=O)OC [DMF, dimethyl fumarate]
side effect profile across dosages (patients): similar | aqueous solubility [2]: poor

O=C(O)/C=C/C(=O)O [Fumaric acid]
growth of the Ehrlich ascites tumor (Ehrlich ascites tumor): inhibits the growth

CC(=O)S[C@@H]1CC2=CC(=O)CC[C@]2(C)[C@H]2CC[C@@]3(C)[C@@H](CC[C@@]34CCC(=O)O4)[C@H]12 [spironolactone]
incidence of primary composite outcome of death from cardiovascular causes, cardiac arrest, or hospitalization for heart failure [3]: did not significantly reduce
